The target of the assay is T1, Glycogen phosphorylase, muscle form (Oryctolagus cuniculus, UniProt P00489).
T1 sequence (P00489 whole entry): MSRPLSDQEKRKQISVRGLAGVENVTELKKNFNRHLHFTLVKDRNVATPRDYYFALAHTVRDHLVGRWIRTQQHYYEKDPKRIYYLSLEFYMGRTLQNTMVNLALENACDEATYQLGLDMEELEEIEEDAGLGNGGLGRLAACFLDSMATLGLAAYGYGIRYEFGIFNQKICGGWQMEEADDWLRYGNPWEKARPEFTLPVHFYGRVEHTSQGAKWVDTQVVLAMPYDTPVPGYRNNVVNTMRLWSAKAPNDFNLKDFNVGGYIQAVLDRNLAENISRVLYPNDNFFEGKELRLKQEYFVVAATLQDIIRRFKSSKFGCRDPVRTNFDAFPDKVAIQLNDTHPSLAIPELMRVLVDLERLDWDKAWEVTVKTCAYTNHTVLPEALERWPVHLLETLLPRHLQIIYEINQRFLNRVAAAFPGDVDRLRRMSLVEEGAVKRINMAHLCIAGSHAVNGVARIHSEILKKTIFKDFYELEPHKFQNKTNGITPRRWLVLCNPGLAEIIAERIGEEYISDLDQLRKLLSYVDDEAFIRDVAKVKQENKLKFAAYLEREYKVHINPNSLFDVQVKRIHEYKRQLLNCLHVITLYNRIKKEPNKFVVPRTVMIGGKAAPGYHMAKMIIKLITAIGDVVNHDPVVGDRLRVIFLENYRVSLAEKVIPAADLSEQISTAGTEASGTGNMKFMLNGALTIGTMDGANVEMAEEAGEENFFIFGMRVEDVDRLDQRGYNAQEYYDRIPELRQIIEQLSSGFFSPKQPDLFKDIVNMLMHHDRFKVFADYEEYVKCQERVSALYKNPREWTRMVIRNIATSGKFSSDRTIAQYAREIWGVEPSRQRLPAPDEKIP
As to the kind of experiment: Inhibition Assay. The note with it: pH 7.2; 22 °C. On the procedure:
Each compound was dissolved in DMSO and diluted at different concentrations. RMGPa was added to 100 µL of buffer (50 mM Hepes pH 7.2, 100 mM KCl, 2.5 mM MgCl2, 0.5 mM glucose-1-phosphate, 1 mg/mL glycogen, and compound in 96-well microplates. Reaction was […] by the addition of 150 µL of 1 M HCl containing 10 mg/mL ammonium molybdate and 0.38 mg/mL malachite green and run for 25 min at 22 C.
Regarding `CCCCCCCCCC(=O)OCc1cn(CC(=O)O[C@H]2CC[C@]3(C)[C@H]4CC=C5[C@@H]6CC(C)(C)CC[C@]6(C(=O)OCc6ccccc6)CC[C@@]5(C)[C@]4(C)CC[C@H]3C2(C)C)nn1` [Benzyl 3b-[2-(4-decanoyloxymethyl-1H-1,2,3-triazol-1-yl)acetoxy]olean-12-en-28-oate (Compound 7b)], the midpoint of inhibition, the IC50, lay at 144 µM.

For the compound `CC1(C)CC[C@]2(C(=O)OCc3ccccc3)CC[C@]3(C)C(=CC[C@@H]4[C@@]5(C)CC[C@H](O)C(C)(C)[C@@H]5CC[C@]43C)[C@@H]2C1` [benzyl (4aS,6aS,6bR,8aR,10S,12aR,12bR,14bS)-10-hydroxy-2,2,6a,6b,9,9,12a-heptamethyl-1,3,4,5,6,7,8,8a,10,11,12,12b,13,14b-tetradecahydropicene-4a-carboxylate (Compound 4)], the midpoint of inhibition, the IC50, lay at 461 µM.

For the compound `COc1ccc(C(=O)OCc2cn(CC(=O)O[C@H]3CC[C@]4(C)[C@H]5CC=C6[C@@H]7CC(C)(C)CC[C@]7(C(=O)OCc7ccccc7)CC[C@@]6(C)[C@]5(C)CC[C@H]4C3(C)C)nn2)cc1` [Benzyl 3b-{2-[4-(4-methoxybenzoyloxy)methyl-1H-1,2,3-triazol-1-yl]acetoxy}olean-12-en-28-oate (Compound 7f)], the midpoint of inhibition, the IC50, lay at 38.9 µM.

With `CCCCCCCCCC(=O)OCc1cn(CC(=O)O[C@H]2CC[C@]3(C)[C@H]4CC=C5[C@@H]6CC(C)(C)CC[C@]6(C(=O)O)CC[C@@]5(C)[C@]4(C)CC[C@H]3C2(C)C)nn1` [3b-[2-(4-decanoyloxymethyl-1H-1,2,3-triazol-1-yl)acetoxy]olean-12-en-28-oic acid (Compound 8b)], inhibition was half-maximal at 25.6 µM (IC50).

With `CCCCCCCCCCCCCCCCCC(=O)OCc1cn(CC(=O)O[C@H]2CC[C@]3(C)[C@H]4CC=C5[C@@H]6CC(C)(C)CC[C@]6(C(=O)O)CC[C@@]5(C)[C@]4(C)CC[C@H]3C2(C)C)nn1` [3b-[2-(4-stearoyloxymethyl-1H-1,2,3-triazol-1-yl)acetoxy]olean-12-en-28-oic acid (Compound 8e)], it took 11.2 µM to reach half-maximal inhibition (IC50).

On to `CCCCCCCCCCCC(=O)OCc1cn(CC(=O)O[C@H]2CC[C@]3(C)[C@H]4CC=C5[C@@H]6CC(C)(C)CC[C@]6(C(=O)O)CC[C@@]5(C)[C@]4(C)CC[C@H]3C2(C)C)nn1` [3b-[2-(4-dodecanoyloxymethyl-1H-1,2,3-triazol-1-yl)acetoxy]olean-12-en-28-oic acid (Compound 8c)], for which the IC50 – broadly, the concentration that gives 50% inhibition – stood at 8.4 µM.

`CC1(C)CC[C@]2(C(=O)OCc3ccccc3)CC[C@]3(C)C(=CC[C@@H]4[C@@]5(C)CC[C@H](OC(=O)Cn6cc(COC(=O)Cc7ccc8ccccc8c7)nn6)C(C)(C)[C@@H]5CC[C@]43C)[C@@H]2C1` [Benzyl 3b-{2-[4-(2-naphthalen-2-yl)acetoxymethyl-1H-1,2,3-triazol-1-yl]acetoxy}olean-12-en-28-oate (Compound 7g)] came in with an IC50 of 23.9 µM.

Consider `CCCCCCCCC(=O)OCc1cn(CC(=O)O[C@H]2CC[C@]3(C)[C@H]4CC=C5[C@@H]6CC(C)(C)CC[C@]6(C(=O)OCc6ccccc6)CC[C@@]5(C)[C@]4(C)CC[C@H]3C2(C)C)nn1` [Benzyl 3b-[2-(4-nonanoyloxymethyl-1H-1,2,3-triazol-1-yl)acetoxy]olean-12-en-28-oate (Compound 7a)], for which the IC50 is 80.1 µM.

The compound `CCCCCCCCCCCCCCCC(=O)OCc1cn(CC(=O)O[C@H]2CC[C@]3(C)[C@H]4CC=C5[C@@H]6CC(C)(C)CC[C@]6(C(=O)O)CC[C@@]5(C)[C@]4(C)CC[C@H]3C2(C)C)nn1` [3b-[2-(4-palmitoyloxymethyl-1H-1,2,3-triazol-1-yl)acetoxy]olean-12-en-28-oic acid (Compound 8d)] showed an IC50 of 221 µM.

`CCCCCCCCC(=O)OCc1cn(CC(=O)O[C@H]2CC[C@]3(C)[C@H]4CC=C5[C@@H]6CC(C)(C)CC[C@]6(C(=O)O)CC[C@@]5(C)[C@]4(C)CC[C@H]3C2(C)C)nn1` [3b-[2-(4-nonanoyloxymethyl-1H-1,2,3-triazol-1-yl)acetoxy]olean-12-en-28-oic acid (Compound 8a)] had a 50% inhibitory concentration (IC50) of 77.1 µM.

Turning to `COc1ccc(C(=O)OCc2cn(CC(=O)O[C@H]3CC[C@]4(C)[C@H]5CC=C6[C@@H]7CC(C)(C)CC[C@]7(C(=O)O)CC[C@@]6(C)[C@]5(C)CC[C@H]4C3(C)C)nn2)cc1` [3b-{2-[4-(4-methoxybenzoyloxy)methyl-1H-1,2,3-triazol-1-yl]acetoxy}olean-12-en-28-oic acid (Compound 8f)], it took 34.6 µM to reach half-maximal inhibition (IC50).

The record behind these values is BindingDB's records for doi:10.1111/cbdd.12241 (Chengde Medical University, 2014).
